From patent publication US8216785B2, “Method for detecting neuroblastoma” (Fujifilm Corporation, priority 2008, dated 2012)
Non-standard residues stand in square brackets, D forms with d. Residues, ends and D or L forms follow the SMILES beside them. *: point of attachment. Nle = CCCC[C@H](N)C(=O)O; Cbz = O=C(OCc1ccccc1)*; CH2F = FC*

How the values were obtained:
Assay type in all cases: cell-based
[1] = tested on: LAPTM5 in Ad-LAPTM5-infected GOTO cells; assay: LAPTM5 accumulation upon blocking proteasomal or lysosomal degradation, Western blot and fluorescent staining; details: treated one day after Ad-LAPTM5 infection for additional one day
Experimental: The cells were treated with a proteasome inhibitor (ALLN or MG132) or a lysosomal degradation inhibitor (Bafilimycin A1 or […]) 1 day later. The cells were recovered 1 day later, the samples were prepared, and Western blot analysis was then carried out. The prepared samples were subjected to SDS-PAGE, and Western blot analysis was carried out using relevant antibodies.
As with the case of (a), the cells were treated, fixed, subjected to the immune reaction using the LAPTM5 antibody, and visualized with the use of the Texas Red complex secondary antibody.
After the control or LAPTM5 siRNA was transfected, the cells were treated as with the case of (a), and the samples were prepared. Western blot analysis was carried out using the LAPTM5 antibody.
(§1) Accordingly, whether or not LAPTM5 would undergo proteasomal or lysosomal proteolysis and whether or not LAPTM5 accumulation would be important for cell death were inspected. One day after Ad-LAPTM5 infection, the cells were treated with a proteasome inhibitor (ALLN or MG132) or a lysosome inhibitor (Bailomycin A1 and NH4Cl) for additional one day. Thereafter, the cells were recovered, samples were prepared, and Western blot analysis was performed. […] Further, this accumulation was also confirmed via fluorescent staining using the LAPTM5 antibody (FIG. 4b). […] Thus, LAPTM5 was considered to undergo proteasomal and lysosomal proteolysis, and LAPTM5 accumulation was considered to be deeply involved with induction of cell death. In order to examine whether or not LAPTM5 accumulation would be essential for induction of cell death, the influence of transfection of siRNA against LAPTM5 was then examined.

[2] = tested on: Ad-LAPTM5-infected GOTO cells; assay: Cell death frequency along with LAPTM5 accumulation, trypan blue exclusion; details: treated one day after Ad-LAPTM5 infection for additional one day
Experimental: As in the case of (a), the cells that had died upon treatment were assayed via trypan blue exclusion. A vertical line represents the standard deviation of two experiments.
as §1

GOTO cells [3] = assay: Treatment with MPP+ or H2O2: cell death, LAPTM5 expression (quantitative RT-PCR), MYCN expression (Western blot); details: for LAPTM5 expression / frequency of cell death: MPP+ 1 or 2 mM 24 hours, H2O2 100 or 200 uM 48 hours; for MYCN expression: MPP+ or H2O2 treatment
Experimental: In FIG. 5(a), the GOTO cells were treated with MPP+ (1 or 2 mM) for 24 hours or with H2O2 (100 or 200 uM) for 48 hours. Thereafter, the dead cells were assayed via trypan blue exclusion. The LAPTM5 expression level was analyzed via quantitative RT-PCR. A vertical line represents the standard deviation of two experiments.
The prepared samples were subjected to SDS-PAGE, and Western blot analysis was carried out using relevant antibodies.
The cause for NB cell degeneration upon regression of favorable NB tumors has not yet been elucidated. […] This indicates a common mechanism between NB tumor regression and cell degeneration in the case of neurodegenerative diseases. Mitochondrial injury and oxidative stress are known to be deeply involved in neuron degeneration in the case of neurodegenerative disease. […] MYCN proteins are known to not only activate but also suppress transcription of various target genes. Accordingly, MYCN proteins that have been activated via amplification were considered to suppress activation of LAPTM5 transcription induced by stress. Thus, whether or not MYCN would directly bind to a site in the vicinity of the transcription initiation point of the LAPTM5 gene was inspected via ChIP assay. […] Meanwhile, the IMR32 cell line is known to differentiate into nerve cells via treatment with retinoic acid.

[4] = tested on: GOTO cells that stably express GFP-LC3; assay: Treatment with an LMP inducer, immunoblot of GFP-LC3 type II and p62/SQSTM1; details: CPX 100 or 300 μg/ml
Experimental: The GOTO cells (1×10^6 cells/well) that stably express GFP-LC3 were sowed on a 6-well plate and treated with ciprofloxican (CPX) (100 or 300 μg/ml) or a solvent thereof (0.1N hydrochloric acid) so as to induce LMP. The total cell extract obtained from the treated cells was electrophoresed via SDS-PAGE and subjected to immunoblot analysis using antibodies reacting with relevant proteins.
LAPTM5 is known to be a membrane protein that localizes in the lysosome. […] Such changes in LTR staining patterns result from LMP, which indicates destabilization and destruction of the lysosome. LMP was observed along with an increase in LAPTM5-induced cell death (2.7 times in GOTO cell (p=0.0007) and 5.4 times in IMR32 cell (p=0.0108), compared with Ad-LacZ cell; FIG. 11). […] Accordingly, LAPTM5-induced LMP was deduced to induce blocking of the autophagy pathway. […] In conformity with the results of in vitro observation, elevated expression of p62/SQSTM1, ubiquitinated proteins, and cathepsin D was also observed via immunohistological staining (FIG. 3f). […] At the same time, lysosome instability induced by LAPTM5 was considered to induce accumulation of immature autophagic vesicles and ubiquitinated proteins.

GOTO cells [5] = assay: Frequency of dead cells via trypan blue exclusion after adenovirus infection; details: zVAD 100 μM
Experimental: (§2) The cells that had been sowed under the same conditions as in (b) were infected with the same MOIs of Ad-LacZ or Ad-LAPTM5. Also, the cell lines were treated or not treated with the pan-caspase inhibitor, zVAD-fink. The number of dead cells was determined via trypan blue exclusion 2 days and 4 days after infection and was indicated in terms of percentage. A vertical line represents the standard deviation of two experiments.
(§3) In order to inspect whether or not LAPTM5 expression is associated with cell death of neuroblastoma cells, the influence of forced LAPTM5 expression in the neuroblastoma cell line was inspected using the adenovirus-mediated expression system. Cell death and the survival rate were assayed by sowing the cells on a 24-well plate and infecting the cells with the selected MOIs of viruses (multiplicities of infection; PFU/cell). The number of dead cells was determined via trypan blue exclusion 2 or 4 days after infection. The pan-caspase inhibitor, zVAD-fml, was used at a concentration of 100 μM. At least 200 cells were counted in each experiment. The number of survived cells was determined via colorimetric assay using a water-soluble tetrazolium salt (the cell counting kit-8; Dojindo Laboratories).

IMR32 cells = assay: as above; details: zVAD 100 μM
Experimental: as §2, §3

CCCC[C@@H](C=O)NC(=O)[C@H](CC(C)C)NC(=O)[C@H](CC(C)C)NC(C)=O [ALLN] (Ac-Leu-Leu-[Nle]-aldehyde)
accumulation of expressed LAPTM5 [1]: significantly accumulated | cell death frequency [2]: significantly increased

CO/C1=C\C(C)=C\[C@@H](C)[C@@H](O)[C@@H](C)C/C(C)=C/C=C/[C@H](OC)[C@@H]([C@@H](C)[C@@H](O)[C@H](C)[C@@]2(O)C[C@@H](O)[C@H](C)[C@@H](C(C)C)O2)OC1=O [Bafilomycin A1]
accumulation of expressed LAPTM5 [1]: significantly accumulated | cell death frequency [2]: significantly increased

OO [H2O2]
LAPTM5 expression (GOTO cells [3]): activated | frequency of cell death (GOTO cells [3]): frequency of concentration-dependent cell death increased | MYCN expression (GOTO cells [3]): decrease

CC(C)C[C@@H](C=O)NC(=O)[C@H](CC(C)C)NC(=O)[C@H](CC(C)C)NC(=O)OCc1ccccc1 [MG132] (Cbz-Leu-Leu-Leu-aldehyde)
accumulation of expressed LAPTM5 [1]: significantly accumulated | cell death frequency [2]: significantly increased

C[n+]1ccc(-c2ccccc2)cc1 [MPP+, 1-methyl-4-phenylpridinium]
LAPTM5 expression (GOTO cells [3]): activated | frequency of cell death (GOTO cells [3]): frequency of concentration-dependent cell death increased | MYCN expression (GOTO cells [3]): decrease

Cl.N [NH4Cl]
accumulation of expressed LAPTM5 [1]: significantly accumulated | cell death frequency [2]: significantly increased

O=C(O)c1cn(C2CC2)c2cc(N3CCNCC3)c(F)cc2c1=O [ciprofloxacin]
LC3-II detection [4]: LC3-II was detected | p62/SQSTM1 protein accumulation [4]: p62/SQSTM1 protein accumulation was observed

COC(=O)C[C@H](NC(=O)[C@H](C)NC(=O)[C@@H](NC(=O)OCc1ccccc1)C(C)C)C(=O)CF [zVAD-fmk] (Cbz-Val-Ala-Asp(OMe)-CH2F)
inhibition of Ad-LAPTM5-induced cell death by caspase inhibitor (GOTO cells [5]): would not be inhibited | inhibition of Ad-LAPTM5-induced cell death by caspase inhibitor (IMR32 cells): would not be inhibited
